Results from patent US5053070A, “Pyrimidine derivatives, preparation processes thereof, herbicide containing the same, and herbicidal compositions containing the same along with other active ingredient” (Mitsui Toatsu Chemicals, Incorporated, priority 1988, dated 1991).
In brackets after ≈: the same amount, converted by molar mass.

What was measured:
[1] = tested on: rice; experiment: Treatment of soil under submerged condition, post-emergence (Test 5), injury; format: in vivo; conditions: 30 g ai/a granule, 30 days later
Method in brief: (§1)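 Post-emergence paddy test: granules of a predetermined amount of test composition go onto flooded pots when barnyardgrass has two leaves. Transplanted rice seedlings (2–3 leaf stage) share the pots with sown weeds. Damage and crop injury are rated at 30 days.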

[2] = tested on: bulrush; experiment: Treatment of soil under submerged condition, post-emergence (Test 5); format: in vivo; conditions: 30 g ai/a granule, 30 days later
Method in brief: as §1

[3] = tested on: barnyardgrass; experiment: as above; format: in vivo; conditions: 30 g ai/a granule, post-emergence (barnyardgrass two-leaf stage), 30 days later
Method in brief: as §1

[4] = tested on: Sagittaria pygmaea; experiment: as above; format: in vivo; conditions: 30 g ai/a granule, 30 days later
Method in brief: as §1

[5] = tested on: peanut; experiment: Upland foliar application test (Test 3), crop injury; format: in vivo; conditions: 30 g ai/a, foliar spray at 2-3 leaves, 30th day
Method in brief: (§2)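 Foliar post-emergence spray: diluted emulsifiable formulation applied at 5 l/are by pressure ULV sprayer once plants in upland-soil greenhouse pots reached 2-3 leaves. Degree of weed damage and crop injury rated on day 30 post-application.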

[6] = tested on: narrowleaf waterplantain; experiment: Petri dish test (Test 6); format: in vivo; conditions: 336 h; seeds on filter paper, 25° C., 14 days; read-out: I80 (ppm)
Method in brief: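 Narrowleaf waterplantain seeds placed on filter paper pre-treated with compound in acetone (solvent air-dried) in 9 cm Petri dishes with 10 ml water, grown at 25° C in light. Growth was scored after fourteen days as degree of damage against an untreated group.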

[7] = tested on: ALS (acetolactate syntase); experiment: ALS enzyme assay (Test 1); format: biochemical, barnyardgrass; conditions: 1,000 ppm (0.5 mg/0.5 ml)
Method in brief: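 Partially purified ALS from dark-grown pea and barnyardgrass seedlings incubated 1 h at 30° C with pyruvate, TPP, MgCl2 and FAD. Compounds tested at 1,000 ppm (0.5 mg/0.5 ml). Acetoin formed detected colorimetrically at 525 nm via creatine/α-naphthol, relative to blank and acid-stopped controls.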

[8] = tested on: green foxtail; experiment: Upland foliar application test (Test 3); format: in vivo; conditions: 30 g ai/a, foliar spray at 2-3 leaves, 30th day
Method in brief: as §2

[9] = tested on: barnyardgrass; experiment: Upland foliar application test (Test 3); format: in vivo; conditions: 30 g ai/a, foliar spray at 2-3 leaves, 30th day
Method in brief: as §2

[10] = tested on: johnsongrass; experiment: Upland foliar application test (Test 3); format: in vivo; conditions: 30 g ai/a, foliar spray at 2-3 leaves, 30th day
Method in brief: as §2

[11] = tested on: large crabgrass; experiment: Upland foliar application test (Test 3); format: in vivo; conditions: 30 g ai/a, foliar spray at 2-3 leaves, 30th day
Method in brief: as §2

[12] = tested on: redroot pigweed; experiment: Upland foliar application test (Test 3); format: in vivo; conditions: 30 g ai/a, foliar spray at 2-3 leaves, 30th day
Method in brief: as §2

[13] = tested on: common lambsquarters; experiment: Upland foliar application test (Test 3); format: in vivo; conditions: 30 g ai/a, foliar spray at 2-3 leaves, 30th day
Method in brief: as §2

[14] = tested on: foxtail meadow; experiment: Upland foliar application test (Test 3); format: in vivo; conditions: 30 g ai/a, foliar spray at 2-3 leaves, 30th day
Method in brief: as §2

[15] = tested on: bulrush; experiment: Treatment of soil under submerged condition, pre-emergence (Test 4); format: in vivo; conditions: 30 g ai/a granule, 30 days later
Method in brief: (§3)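 Wagner pots of soil were seeded or planted with weed seeds or tubers under flooding, then 2–3-leaf rice seedling pairs were transplanted and grown in a greenhouse. One day later, before weed emergence, pots received a granule of the test composition at a predetermined amount. Weed emergence and rice injury were scored 30 days later.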

[16] = tested on: barnyardgrass; experiment: as above; format: in vivo; conditions: 30 g ai/a granule, 30 days later
Method in brief: as §3

[17] = tested on: Sagittaria pygmaea; experiment: as above; format: in vivo; conditions: 30 g ai/a granule, 30 days later
Method in brief: as §3

[18] = tested on: rice; experiment: Treatment of soil under submerged condition, pre-emergence (Test 4), injury; format: in vivo; conditions: 30 g ai/a granule, 30 days later
Method in brief: as §3

Compound	Injury Rice [1]	Herbicidal effects Bulrush [2]	Herbicidal effects Barnyardgrass [3]	Herbicidal effects Sagittaria Pygmaea [4]	Injury Peanut [5]	IC80 [6]	Inhibitory activity (%) Barnyardgrass [7]	Herbicidal effects Green foxtail [8]	Herbicidal effects Barnyardgrass [9]	Herbicidal effects Johnsongrass [10]	Herbicidal effects Large crabgrass [11]	Herbicidal effects Redroot pigweed [12]	Herbicidal effects Common lambsquarters [13]	Herbicidal effects Foxtail meadow [14]	Herbicidal effects Bulrush [15]	Herbicidal effects Barnyardgrass [16]	Herbicidal effects Sagittaria Pygmaea [17]	Injury Rice [18]
COc1cc(OC)nc(Oc2ccccc2C=NO)n1 [Compound No. 24, 2-(4,6-dimethoxy-2-pyrimidinyloxy)-benzaloxime]	1 (71-90 (Slight damages))	5 (0-5 (Death))	5 (0-5 (Death))	4 (6-10 (Severe damages))	0 (91-100 (No damages))	100 µg/mL (≈ 363 µM)	36%	4 (6-10 (Severe damages))	4 (6-10 (Severe damages))	5 (0-5 (Death))	4 (6-10 (Severe damages))	3 (11-40 (Medium damages))	3 (11-40 (Medium damages))	4 (6-10 (Severe damages))	2 (41-70 (Small damages))	3 (11-40 (Medium damages))	4 (6-10 (Severe damages))	1 (71-90 (Slight damages))
COc1cc(OC)nc(Oc2ccccc2C=NOCC=Cc2cccc(Cl)c2)n1 [Compound No. 26, 0-(3-chlorocinnamyl)-2-(4,6-dimethoxy-2-pyrimidinyloxy)benzaldxime]	0 (91-100 (No damages))	4 (6-10 (Severe damages))	5 (0-5 (Death))	4 (6-10 (Severe damages))	0 (91-100 (No damages))	2 µg/mL (≈ 4.7 µM)	89%	5 (0-5 (Death))	5 (0-5 (Death))	5 (0-5 (Death))	5 (0-5 (Death))	4 (6-10 (Severe damages))	4 (6-10 (Severe damages))	4 (6-10 (Severe damages))	4 (6-10 (Severe damages))	4 (6-10 (Severe damages))	5 (0-5 (Death))	0 (91-100 (No damages))
COc1cc(OC)nc(Oc2ccccc2C=NOCC=Cc2ccccc2Cl)n1 [Compound No. 27]	0 (91-100 (No damages))	4 (6-10 (Severe damages))	5 (0-5 (Death))	4 (6-10 (Severe damages))	0 (91-100 (No damages))	2 µg/mL (≈ 4.7 µM)	100%	5 (0-5 (Death))	4 (6-10 (Severe damages))	5 (0-5 (Death))	5 (0-5 (Death))	5 (0-5 (Death))	4 (6-10 (Severe damages))	5 (0-5 (Death))	4 (6-10 (Severe damages))	5 (0-5 (Death))	4 (6-10 (Severe damages))	0 (91-100 (No damages))
COc1cc(OC)nc(Oc2ccccc2C=NOCC=Cc2ccc(Cl)cc2)n1 [Compound No. 28]	0 (91-100 (No damages))	4 (6-10 (Severe damages))	5 (0-5 (Death))	4 (6-10 (Severe damages))	0 (91-100 (No damages))	2 µg/mL (≈ 4.7 µM)	91%	4 (6-10 (Severe damages))	5 (0-5 (Death))	5 (0-5 (Death))	4 (6-10 (Severe damages))	4 (6-10 (Severe damages))	4 (6-10 (Severe damages))	5 (0-5 (Death))	3 (11-40 (Medium damages))	3 (11-40 (Medium damages))	3 (11-40 (Medium damages))	0 (91-100 (No damages))
COc1cc(OC)nc(Oc2ccccc2C=NOCC=Cc2cccc(C)c2)n1 [Compound No. 34, 0-(3-methylcinnamyl)-2-(4,6-dimethoxy-2-pyrimidinyloxy)benzaldoxime]	1 (71-90 (Slight damages))	4 (6-10 (Severe damages))	5 (0-5 (Death))	3 (11-40 (Medium damages))	0 (91-100 (No damages))	2 µg/mL (≈ 4.93 µM)	91%	5 (0-5 (Death))	5 (0-5 (Death))	5 (0-5 (Death))	4 (6-10 (Severe damages))	4 (6-10 (Severe damages))	4 (6-10 (Severe damages))	5 (0-5 (Death))	4 (6-10 (Severe damages))	4 (6-10 (Severe damages))	5 (0-5 (Death))	0 (91-100 (No damages))
COc1cc(OC)nc(Oc2ccccc2C=NOCC=Cc2ccccc2C)n1 [Compound No. 39]	0 (91-100 (No damages))	4 (6-10 (Severe damages))	5 (0-5 (Death))	4 (6-10 (Severe damages))	0 (91-100 (No damages))	2 µg/mL (≈ 4.93 µM)	92%	5 (0-5 (Death))	5 (0-5 (Death))	5 (0-5 (Death))	5 (0-5 (Death))	5 (0-5 (Death))	4 (6-10 (Severe damages))	5 (0-5 (Death))	4 (6-10 (Severe damages))	5 (0-5 (Death))	4 (6-10 (Severe damages))	1 (71-90 (Slight damages))
